Reference: paper PMC8449657, “Identification of a self‐sufficient cytochrome P450 monooxygenase from Cupriavidus pinatubonensis JMP134 involved in 2‐hydroxyphenylacetic acid catabolism, via homogentisate pathway” (Microbial Biotechnology, 2021)

Molecular target: T1, OhpA (Cupriavidus pinatubonensis, UniProt Q46QG0)
T1 construct: gene Reut_B5278; full length, 783 aa, untagged as far as told; pBS1-ohpA (PBAD) expressed in Pseudomonas putida KT2440, assayed in cell extract
T1 sequence (Q46QG0 1-783): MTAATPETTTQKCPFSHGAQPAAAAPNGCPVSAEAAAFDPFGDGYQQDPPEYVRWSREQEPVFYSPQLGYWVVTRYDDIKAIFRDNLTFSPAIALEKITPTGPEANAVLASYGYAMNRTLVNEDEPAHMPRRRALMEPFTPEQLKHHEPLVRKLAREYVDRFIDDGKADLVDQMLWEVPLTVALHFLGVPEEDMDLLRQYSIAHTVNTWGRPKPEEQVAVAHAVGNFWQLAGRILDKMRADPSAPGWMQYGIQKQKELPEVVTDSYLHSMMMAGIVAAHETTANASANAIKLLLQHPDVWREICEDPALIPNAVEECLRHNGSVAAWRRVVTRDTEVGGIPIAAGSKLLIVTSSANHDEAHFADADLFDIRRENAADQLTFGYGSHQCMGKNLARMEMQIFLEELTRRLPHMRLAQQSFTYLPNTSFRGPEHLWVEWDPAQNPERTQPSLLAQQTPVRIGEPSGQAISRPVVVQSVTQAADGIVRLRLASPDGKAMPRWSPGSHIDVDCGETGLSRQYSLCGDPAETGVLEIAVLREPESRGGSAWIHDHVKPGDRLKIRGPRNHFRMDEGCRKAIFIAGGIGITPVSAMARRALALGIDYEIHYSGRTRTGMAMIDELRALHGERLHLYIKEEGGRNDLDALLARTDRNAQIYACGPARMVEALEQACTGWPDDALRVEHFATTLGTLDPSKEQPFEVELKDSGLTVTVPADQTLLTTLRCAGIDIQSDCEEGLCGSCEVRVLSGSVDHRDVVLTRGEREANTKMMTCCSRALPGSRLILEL
Assay: substrate-dependent NADH oxidation at […] nm in extract of P. putida KT2440 pBS1-ohpA
Type: biochemical
Conditions: 0.2 mM NADH, 100 uM 2-HPA, 1 uM FAD, 35 mM Tris/acetate pH 7.5

For `NC(=O)C1=CN([C@@H]2O[C@H](COP(=O)(O)OP(=O)(O)OC[C@H]3O[C@@H](n4cnc5c(N)ncnc54)[C@H](O)[C@@H]3O)[C@@H](O)[C@H]2O)C=CC1` [NADH], the “substrate-dependent NADH oxidation at 340 nm in extract of P. putida KT2440 pBS1” value was “we assayed the substrate‐dependent NADH oxidation in cell extracts of P. putida KT2440 harbouring pBS1‐ohpA”.
